Experimental data from ChEMBL document CHEMBL1135764, “Synthesis and evaluation of Glypsi(PO(2)R-N)Pro-containing pseudopeptides as novel inhibitors of the human cyclophilin hCyp-18” (J Med Chem, 2002).
Active and inactive are the calls of the source. The rule behind the calls is not given here.

Tests used:
[1] = system: cyclophilin A hCyp-18 (Homo sapiens); assay: Inhibitory activity against Human Cyclophilin hCyp-18 Peptidyl-prolyl isomerase by using the standard uncoupled PPIase (peptidyl-prolyl isomerases) assay at a concentration of 500 uM;NI-no inhibition
[2] = system: cyclophilin A hCyp-18 (Homo sapiens); assay: Inhibitory activity against Human Cyclophilin hCyp-18 Peptidyl-prolyl isomerase by using the standard uncoupled PPIase (peptidyl-prolyl isomerases) assay at a concentration of 500 uM
[3] = system: cyclophilin A hCyp-18 (Homo sapiens); assay: Inhibitory activity against Human Cyclophilin hCyp-18 Peptidyl-prolyl isomerase by using the standard trypsin-coupled PPIase (peptidyl-prolyl isomerases) assay at a concentration of 100 uM

## CCOP(=O)(CNC(=O)[C@H](C)NC(C)=O)N1CCCC1C(=O)N[C@H](CNc1ccc([N+](=O)[O-])cc1)Cc1ccccc1 (stereo partly drawn)
[1]
  NI: inactive
[2]
  Inhibition: 30%

## COC(=O)Cc1ccc(NC(=O)[C@H](Cc2ccccc2)NC(=O)C2CCCN2P(=O)(O)CNC(=O)[C@H](C)NC(C)=O)cc1 (stereo partly drawn)
[3]
  Inhibition: 0%
